Structures can show the parent of a compound that is named as a salt. Where two headings read alike, the source gives them in different places.
Type: in vivo
Details: 5 mg/kg on the basis of DOPA, into the femoral vein, SD rats
Procedure: The distribution and residence in brain of the compounds according to the present invention were evaluated as follows.
Blood samples were taken out from abdominal aorta after a certain period of […]. Immediately after the exsanguination, whole brain was removed. Experiments were carried out with 3 rats at each blood sampling point.
The DOPA concentration in the whole brain was determined in accordance with the method "New Biochemical Experiment Course, Vol. 11, Neurobiochemistry,p. 289-290 (edited by Biochemical Society, Japan, published by Tokyo Kagaku-Dojin, 1990)." As the controls, the Boc-eliminated Compound D and DOPA were administered in the same manner as above to determine the DOPA concentration.

SMILES	Area under the curve of concentration (AUC) of DOPA in brain (Time 0-4 hr) [ng·min/g]	Area under the curve of concentration (AUC) of DOPA in brain (Time 0-2 hr) [ng·min/g]
CC(=C(CCOC(=O)[C@@H](N)Cc1ccc(OC(=O)C(C)(C)C)c(OC(=O)C(C)(C)C)c1)SSC(C)C)N(C)C=O [3 (b)]	82476	
C/C(=C(\CCOC(=O)C(N)Cc1ccc(OC(=O)C(C)(C)C)c(OC(=O)C(C)(C)C)c1)SSCC1CCCO1)N(C=O)Cc1cnc(C)nc1N (stereo not drawn) [29 (b), N-[(4-amino-2-methyl-5-pyrimidyl)methyl]-N-[4-[2-amino-3-(3,4-dipivaloyloxyphenyl)propionyl]oxy-1-methyl-2-[(tetrahydrofurfuryl)dithio]-1-butenyl]formamide]	7151	6659
C=CCSS/C(CCOC(=O)C(N)Cc1ccc(OC(=O)C(C)(C)C)c(OC(=O)C(C)(C)C)c1)=C(/C)N(C=O)Cc1cnc(C)nc1N (stereo not drawn) [35 (b), N-[(4-amino-2-methyl-5-pyrimidyl)methyl]-N-[4-[2-amino-3-(3,4-dipivaloyloxyphenyl)propionyl]oxy-1-methyl-2-[(2-propenyl)dithio]-1-butenyl]formamide]	10626	

Other lines, results leading:

Area under the curve of concentration (AUC) of DOPA in brain (Time 0-4 hr) [ng·min/g]	Area under the curve of concentration (AUC) of DOPA in brain (Time 0-2 hr) [ng·min/g]	SMILES
3277	3169	CC(C)(C)C(=O)Oc1ccc(C[C@H](N)C(=O)O)cc1OC(=O)C(C)(C)C [Boc-elimination of Compound D, reference compound]
6035	6035	N[C@@H](Cc1ccc(O)c(O)c1)C(=O)O [DOPA, 3,4-dihydroxy phenylalanine, reference compound]
	34595	C/C(=C(\CCOC(=O)C(N)Cc1ccc(OC(=O)C(C)(C)C)c(OC(=O)C(C)(C)C)c1)SSC(C)C)N(C=O)Cc1cnc(C)nc1N (stereo not drawn) [Example 30 (b), N-[(4-amino-2-methyl-5-pyrimidyl)methyl]-N-[4-[2-amino-3-(3,4-dipivaloyloxyphenyl)propionyl]oxy-1-methyl-2-[(2-propyl)dithio]-1-butenyl]formamide hydrochloride]

Reference: US5580904A, “Formamido and carboxyamido compounds which can be retained in brain” (Drug Delivery System Institute, Ltd., priority 1992, dated 1996)
